In patent publication US7217704B2, “LPA receptor agonists and antagonists and methods of use” (The University of Tennessee Research Foundation, priority 2003, dated 2007):
Entries after “also recorded” stand apart in the source; their conditions may differ. Where two headings read alike, the source gives them in different places.

Legend:
PC-3 cells = experiment: Ca2+ transients in PC-3 cells endogenously expressing LPA1-3; type: cell-based, human; settings: for IC50: read-out: PC-3 IC50
Description: (§1) The culture medium (DMEM containing 10% FBS) was then replaced with modified Krebs solution (120 mM NaCl, 5 mM KCl, 0.62 mM MgSO4, 1.8 mM CaCl2, 10 mM HEPES, 6 mM glucose, pH 7.4) and the cells were serum starved for 6–8 hours (12 h for PC-3 cells). Cells were loaded with Fura-2 AM for 35 minutes in modified Krebs medium. The Fura-2 was removed before loading the plate in the FlexStation instrument by replacing the medium once again with 100 μl modified Krebs medium/well. Plates were incubated for 4 minutes in the instrument to allow for warming to 37° C. Changes in intracellular Ca^2+ concentration were monitored by measuring the ratio of emitted light intensity at 520 nm in response to excitation by 340 nm and 380 nm wavelength lights, respectively. Each well was monitored for 80–120 seconds. […] Time courses were recorded using the SoftMax Pro software (Molecular Devices, Sunnyvale, Calif.). Ca^2+ transients were quantified automatically by calculating the difference between maximum and baseline ratio values for each well.
We tested the FAP analogs in PC-3 cells, which unlike the transfected RH7777 cells endogenously express LPA1-3 receptors.

IEC-6 cells = experiment: Camptothecin-induced DNA fragmentation (apoptosis) in IEC-6 cells, ELISA; type: cell-based; settings: Camptothecin 20 μM, LPA and FAP12 at 10 μM
Description: The experimental procedure utilized was substantially the same as that reported in Deng et al. (2002) and Deng et al., (2003).
Basically, IEC-6 cells were grown in DMEM medium supplemented with 5% fetal bovine serum, insulin (10 μg/ml), gentamycin sulfate (50 μg/ml), and incubated at 37° C. in a humidified 90% air–10% CO2 atmosphere. Medium was changed every other day. Sub-confluent cells were washed twice and replaced by DMEM without serum the night before experiments.
Damage and IEC-6 cell apoptosis was induced via either γ-irradiation or chemotherapy. 20 Gy single dose of [^137Cs] source γ-irradiation was used in all experiments. […] In some experiments, LPA was added at different times before or after irradiation. Treatment with 20 μM camptothecin of IEC-6 cells induces DNA fragmentation as measured by the ELISA assay at 16 h after treatment. DNA fragmentation was quantified using the Cell Death Detection ELISA kit from Boehringer (Indianapolis, Ind.) according to the instructions of the manufacturer. Samples were run in triplicate. A duplicate of the sample was used to quantify protein concentration using the BCA kit from Pierce (Rockford, Ill.). DNA fragmentation was expressed as absorbance units per μg protein per minute.

LPA2 [1] = biological target: T1, LPA2 (Homo sapiens, UniProt Q9HBW0); experiment: Ca2+ transients (agonism / inhibition of LPA response) in RH7777 cells stably expressing LPA2; type: cell-based; settings: for effect at LPA2 in words: Ca2+ transients
T1 construct: expressed in transfected cells
Description: as §1
(§2) Each FAP analog was tested for the ability to induce Ca^2+ transients in RH7777 cells transfected with LPA1-3 receptors (agonism), as well as the ability to inhibit LPAinduced Ca^2+ transients in the same cells (antagonism) (Table 3).

γ-irradiated mice = experiment: Crypt survival in small intestine after whole body γ-irradiation; type: in vivo; settings: 200 μM into the stomach 2 h prior irradiation, crypts counted 3.5 days after irradiation
Description: The experimental procedure utilized was substantially the same as that reported in Deng et al. (2002).
The whole body irradiation (WBI) protocol has been reviewed and approved by the ACUC Committee of the University of Tennessee Health Sciences Center. ICR strain male mice (Harlan Laboratories, body weight 30–33 g) on a 12 h light/dark cycle and otherwise maintained on a standard laboratory chow ad libitum were starved for 16 h prior to treatment. WBI was done with a 12 Gy or 15 Gy dose using Cs137 source at a dose rate of 1.9 Gy per minute. Groups of four mice received either 250 μl of 1 mM LPA complexed with 100 μM BSA dissolved in Hanks basal salt solution or the BSA vehicle alone 2 h prior to irradiation.
For detection of the apoptotic bodies, mice were euthanized with carbon dioxide inhalation 4 h after irradiation and the small intestine was dissected and fixed in neutral phosphate buffered isotonic 10% formalin. Four ˜3- to 4-mm long segments from the small intestine were embedded in paraffin, 5 μm thick sections were cut and stained with hematoxilin and eosin. The number of surviving crypts was counted 3.5 days after irradiation.

LPA1 [2] = biological target: T2, LPA1 (Homo sapiens, UniProt Q92633); experiment: Ca2+ transients (agonism / inhibition of LPA response) in RH7777 cells stably expressing LPA1; type: cell-based; settings: for effect at LPA1 in words: Ca2+ transients
T2 construct: expressed in transfected cells
Description: as §1, §2

LPA3 [3] = biological target: T3, LPA3 (Homo sapiens, UniProt Q9UBY5); experiment: Ca2+ transients (agonism / inhibition of LPA response) in RH7777 cells stably expressing LPA3; type: cell-based; settings: for Ki: read-out: LPA3 (Ki)
T3 construct: expressed in transfected cells
T3 sequence (Q9UBY5 1-353): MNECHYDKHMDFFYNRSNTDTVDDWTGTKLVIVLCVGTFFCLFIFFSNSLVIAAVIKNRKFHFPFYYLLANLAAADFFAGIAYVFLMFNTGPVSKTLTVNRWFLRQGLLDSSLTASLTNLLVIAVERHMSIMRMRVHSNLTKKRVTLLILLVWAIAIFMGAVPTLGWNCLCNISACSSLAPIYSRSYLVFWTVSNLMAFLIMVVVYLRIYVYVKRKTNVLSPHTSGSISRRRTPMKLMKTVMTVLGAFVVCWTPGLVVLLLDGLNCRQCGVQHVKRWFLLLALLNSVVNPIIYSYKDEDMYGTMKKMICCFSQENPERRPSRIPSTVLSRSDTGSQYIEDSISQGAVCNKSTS
Description: as §1, §2

PPARγ = biological target: T4, PPARγ (Homo sapiens, UniProt P37231); experiment: PPARγ activation in CV1 cells, PPRE-Acox-Rluc reporter gene assay; settings: 10 μM test compound, 20 h
T4 sequence (P37231 1-505): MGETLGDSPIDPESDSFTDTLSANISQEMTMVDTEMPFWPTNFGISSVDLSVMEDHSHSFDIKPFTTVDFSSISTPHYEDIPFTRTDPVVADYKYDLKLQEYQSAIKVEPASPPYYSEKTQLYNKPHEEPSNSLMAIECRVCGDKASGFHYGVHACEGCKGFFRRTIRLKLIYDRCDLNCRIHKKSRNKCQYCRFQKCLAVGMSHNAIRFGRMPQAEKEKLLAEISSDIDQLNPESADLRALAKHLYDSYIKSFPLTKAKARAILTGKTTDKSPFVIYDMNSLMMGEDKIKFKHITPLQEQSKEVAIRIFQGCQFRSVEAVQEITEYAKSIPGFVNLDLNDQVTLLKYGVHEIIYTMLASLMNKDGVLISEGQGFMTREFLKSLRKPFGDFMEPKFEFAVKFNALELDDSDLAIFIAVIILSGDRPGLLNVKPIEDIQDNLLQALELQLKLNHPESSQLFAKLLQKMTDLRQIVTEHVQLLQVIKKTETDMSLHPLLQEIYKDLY
Description: Comparing the effects with the Rosiglitazone, a known PPARγ agonist, CV1 cells were treated with 1% DMSO or 10 μM of test compound dissolved in DMSO for 20 h. Luciferase and β-galactosidase activities (mean±SEM) were measured in the cell lysate (n=4). *P<0.05 and **P<0.01, significant differences over vehicle control.
The assay of PPARγ activation in CV1 cells was run as reported in Zhang et al. Briefly, CV-1 cells were plated in 96-well plates (5×10^3 cells per well) in Dulbecco's modified Eagle's medium supplemented with 10% fetal bovine serum. […] Samples were run in quadruplicate and the mean±standard errors were calculated. Data are representative of at least two independent transfections. Student's t-test was used for null hypothesis testing and P<0.05 was considered transfection, cells were treated with 1% FBS supplemented OptiMEMI (Invitrogen) containing DMSO or 10 μM test compound dissolved in DMSO for 20 h. Luciferase and β-galactosidase activities were measured with the Steady-Glo® Luciferase Assay significant (in the figures P<0.05 is denoted by * and P<0.01 is **).

LPA1 [4] = biological target: T2, LPA1; settings: original assay, literature; read-out: reported Ki at LPA1; cited from earlier work
LPA3 [5] = biological target: T3, LPA3; settings: original assay, literature; read-out: reported Ki at LPA3; cited from earlier work
LPA3 [6] = biological target: T3, LPA3; settings: GTPγS loading assay, HEK293T; read-out: reported Ki at LPA3; cited from earlier work
LPA1 [7] = biological target: T2, LPA1; settings: GTPγS loading assay, HEK293T; read-out: reported Ki at LPA1; cited from earlier work
LPA2 [8] = biological target: T1, LPA2; settings: GTPγS loading assay, HEK293T; read-out: reported Ki at LPA2; cited from earlier work
[9] = induction of Ca2+ transients, RH7777 cells expressing LPA2, read-out: LPA2 EC50
[10] = inhibition of LPA-induced Ca2+ transients, RH7777 cells expressing LPA2, read-out: LPA2 IC50
[11] = induction of Ca2+ transients, RH7777 cells expressing LPA1, read-out: LPA1 EC50
[12] = inhibition of LPA-induced Ca2+ transients, RH7777 cells expressing LPA1, read-out: LPA1 IC50
[13] = induction of Ca2+ transients, RH7777 cells expressing LPA3, read-out: LPA3 EC50
[14] = inhibition of LPA-induced Ca2+ transients, RH7777 cells expressing LPA3
[15] = inhibition of LPA-induced Ca2+ transients, RH7777 cells expressing LPA3, read-out: LPA3 IC50
[16] = inhibition of LPA-induced Ca2+ transients, PC-3 cells

T1 sequence (Q9HBW0 whole entry): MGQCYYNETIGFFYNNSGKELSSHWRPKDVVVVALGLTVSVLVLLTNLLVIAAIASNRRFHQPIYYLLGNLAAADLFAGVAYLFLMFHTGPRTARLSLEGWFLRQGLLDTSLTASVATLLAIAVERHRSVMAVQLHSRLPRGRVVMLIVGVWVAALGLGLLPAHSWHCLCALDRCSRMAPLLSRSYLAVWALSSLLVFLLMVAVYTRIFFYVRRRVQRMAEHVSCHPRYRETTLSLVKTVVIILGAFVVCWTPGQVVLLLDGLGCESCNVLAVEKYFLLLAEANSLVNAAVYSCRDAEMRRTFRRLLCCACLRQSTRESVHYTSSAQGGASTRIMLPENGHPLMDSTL
T2 sequence (Q92633 whole entry): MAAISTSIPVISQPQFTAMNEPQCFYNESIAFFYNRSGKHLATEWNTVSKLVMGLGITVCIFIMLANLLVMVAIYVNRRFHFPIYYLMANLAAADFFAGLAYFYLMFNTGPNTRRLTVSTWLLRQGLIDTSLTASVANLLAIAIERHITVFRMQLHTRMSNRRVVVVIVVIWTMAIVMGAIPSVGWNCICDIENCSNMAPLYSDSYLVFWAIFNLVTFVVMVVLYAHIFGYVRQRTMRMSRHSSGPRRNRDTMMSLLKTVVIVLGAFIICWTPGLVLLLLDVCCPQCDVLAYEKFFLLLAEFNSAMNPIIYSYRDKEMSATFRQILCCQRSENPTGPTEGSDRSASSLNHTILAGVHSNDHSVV

Compound	effect at LPA2 in words (LPA2 [1]; RH7777 cells expressing LPA2)	effect at LPA1 in words (LPA1 [2]; RH7777 cells expressing LPA1)	PPARγ activation (PPRE-Acox-Rluc reporter) in words (PPARγ)	EC50 (LPA2 [1]; [9])	IC50 (LPA2 [1]; [10])	EC50 (LPA1 [2]; [11])	IC50 (LPA1 [2]; [12])	EC50 (LPA3 [3]; [13])	Ki (LPA3 [3]; [14])	IC50 (LPA3 [3]; [15])	IC50 (PC-3 cells; [16])	Ki (LPA3 [6])	Ki (LPA1 [7])	other results
CCCCCCCCC=CCCCCCCCCOP(O)(O)=S [Compound 8g, Thiophosphoric acid O-octadec-9-enyl ester]	agonist	agonist	–	–	–	–	–	–	–	–	–	–	–	effect in PC-3 cells in words (PC-3 cells; Ca2+ transients, PC-3 cells): no inhibition of LPA response; Emax (PC-3 cells; Homo sapiens, PC-3, read-out: PC-3 (Emax)): 30%; inhibition of Camptothecin-induced DNA fragmentation in words (IEC-6 cells): comparable to that of LPA but supersedes it at concentrations above 3 μM; also recorded: dose-dependently inhibit DNA fragmentation; EC50 (LPA2 [1]): 244 nM; IC50 (LPA2 [1]): > 30000 nM; crypt survival in words (γ-irradiated mice): enhances crypt survival; crypt survival in words (γ-irradiated mice; listed as FAP 18:1 d9): dose-dependent enhancement of crypt survival; crypt survival in words (γ-irradiated mice; listed as FAP 18:1d9): significantly (P>0.01) enhanced crypt survival; also recorded: present in the jejunum and ileum and exceeded that of LPA; also recorded: dose-dependent crypt survival in the ileum and jejunum; EC50 (LPA1 [2]): 193 nM; IC50 (LPA1 [2]): > 30000 nM; Emax (LPA1 [2]; RH7777, read-out: LPA1 (Emax)): 80%; LPA1 (Emax) (LPA1 [2]; maximal efficacy of the drug/maximal efficacy of LPA 18:1): 80%; EC50 (LPA3 [3]): 546 nM; IC50 (LPA3 [3]): > 30000 nM; effect at LPA3 in words (LPA3 [3]; Ca2+ transients, RH7777 cells expressing LPA3): agonist
CCCCCCCC(=O)OC[C@H](COP(=O)(O)OP(=O)(O)O)OC(=O)CCCCCCC [DGPP, reference compound]	–	–	can activate PPRE-Acox-Rluc reporter	> 30000 nM	> 30000 nM	> 30000 nM	5500 nM	> 30000 nM	202 nM	454 nM	–	–	–	Ki (LPA1 [2]; RH7777 cells expressing LPA1): 4300 nM; Ki (LPA1 [4]): 6600 nM; Ki (LPA3 [5]): 106 nM
Cc1noc(-c2ccc(CSCCC(=O)O)cc2)c1NC(=O)OC(C)c1ccccc1Cl (stereo not shown) [Ki16425, reference compound]	–	–	can activate PPRE-Acox-Rluc reporter	> 30000 nM	> 30000 nM	> 30000 nM	762 nM	> 30000 nM	148 nM	301 nM	3380 nM	360 nM	250 nM	Ki (PC-3 cells; [16]): 1740 nM; Ki (LPA1 [2]; inhibition of LPA-induced Ca2+ transients, RH7777 cells expressing LPA1): 425 nM; Ki (LPA2 [8]): 5600 nM
CCCCCCCC/C=C\CCCCCCCC(=O)N[C@@H](COP(=O)(O)O)Cc1ccc(OCc2ccccc2)cc1 [VPC12249, reference compound]	did not affect LPA signaling	weak inhibitor	can activate PPRE-Acox-Rluc reporter; also recorded: exception	> 30000 nM	> 30000 nM	> 30000 nM	> 10000 nM	> 30000 nM	588 nM	1190 nM	> 10000 nM	428 nM	137 nM	–
